Results reported in patent US20210371351A1, “MIXTURES COMPRISING AT LEAST TWO DIFFERENT NITRIFICATION INHIBITORS SELECTED FROM 2-(3,4-DIMETHYL-1H-PYRAZOL-1-YL)SUCCINIC ACID (DMPSA), 3,4-DIMETHYL PYRAZOLIUM GLYCOLATE (DMPG) AND OTHER COMPOUNDS” (BASF SE, priority 2017, published 2021).

Test system: nitrification
Assay: Example 5: soil incubation in bottles with ammonium sulfate, DMPSA, DCD or mixtures, 5 to 15° C., 0 up to 56 days; recovery NH4 (RE/RC), net recovery NH4 (NE/NC), inhibition of NO3 formation (IE/IC, Böhland; Colby)
Protocol: 100 g soil is filled into 500 ml plastic bottles (e.g. soil sampled from the field) and is moistened to 50% water holding capacity. The soil is incubated at 20° C. for two weeks to activate the microbial biomass. 1 ml test solution, containing the compositions and mixtures of the invention in the appropriate concentration, or DMSO and 5 to 10 mg nitrogen in the form of ammoniumsulfate-N is added to the soil and everything mixed well. Bottles are capped but loosely to allow air exchange. The bottles are then incubated at 5 to 15° C. for 0 up to 56 days.
For analysis, 300 ml of a 1% K2SO4-solution is added to the bottle containing the soil and shaken for 2 hrs in a horizontal shaker at 150 rpm. Then the whole solution is filtered through a Macherey-Nagel Filter MN 807′/. Ammonium and nitrate content is then analyzed in the filtrate in an autoanalyzer at 550 nm (Merck, AA11).
The Böhland equation is described in Böhland, H., et al. (1973) “Mittel zur Hemmung bzw. Regelung der Nitrifikation von Ammoniumstickstoff in Kulturböden”. DDR-Wirtschaftspatent (Economic patent of the German Democratic Republic) C 05c 169 727. Cited by: Peschke, H. (1985) “Zur Bewertung der inhibierenden Wirkung von Nitrifiziden im Boden”, Zbl. Mikrobiol. 140, pp. 583-588.

N#CN=C(N)N [DCD, dicyandiamide]
IE inhibition of NO3 formation (IT5° C., DAT10, % a.i.: DMPSA 0.5, DCD 1, DMPSA + DCD 0.5 + 1 (1:2)): 10 | IE inhibition of NO3 formation (IT5° C., DAT10, % a.i.: DMPSA 0.5, DCD 3, DMPSA + DCD 0.5 + 3 (1:6)): 43 | IE inhibition of NO3 formation (IT5° C., DAT20, % a.i.: DMPSA 0.5, DCD 1, DMPSA + DCD 0.5 + 1 (1:2)): −5 | IE inhibition of NO3 formation (IT5° C., DAT20, % a.i.: DMPSA 0.5, DCD 3, DMPSA + DCD 0.5 + 3 (1:6)): 32 | IE (inhibition of NO3 formation, Böhland) (IT5° C., DAT28, % a.i. DMPSA 0.25, DCD 1): 65 | IE (inhibition of NO3 formation, Böhland) (IT5° C., DAT28, % a.i. DMPSA 0.25, DCD 3): 73 | IE (inhibition of NO3 formation, Böhland) (IT5° C., DAT28, % a.i. DMPSA 0.30, DCD 0.05): 1 | IE (inhibition of NO3 formation, Böhland) (IT5° C., DAT28, % a.i. DMPSA 0.50, DCD 0.08): 12 | IE inhibition of NO3 formation (IT5° C., DAT28, % a.i.: DMPSA 0.50, DCD 0.0125, DMPSA + DCD 0.50 + 0.0125 (40:1)): −7 | IE inhibition of NO3 formation (IT5° C., DAT28, % a.i.: DMPSA 0.50, DCD 0.0143, DMPSA + DCD 0.50 + 0.0143 (35:1)): −2 | IE inhibition of NO3 formation (IT5° C., DAT28, % a.i.: DMPSA 0.50, DCD 0.0167, DMPSA + DCD 0.50 + 0.0167 (30:1)): 0 | IE inhibition of NO3 formation (IT5° C., DAT30, % a.i.: DMPSA 0.5, DCD 1, DMPSA + DCD 0.5 + 1 (1:2)): 70 | IE inhibition of NO3 formation (IT5° C., DAT30, % a.i.: DMPSA 0.5, DCD 3, DMPSA + DCD 0.5 + 3 (1:6)): 113 | IE (inhibition of NO3 formation, Böhland) (IT5° C., DAT42, % a.i. DMPSA 0.25, DCD 1): 63 | IE (inhibition of NO3 formation, Böhland) (IT5° C., DAT42, % a.i. DMPSA 0.25, DCD 3): 82 | IE (inhibition of NO3 formation, Böhland) (IT5° C., DAT42, % a.i. DMPSA 0.30, DCD 0.05): 7 | IE (inhibition of NO3 formation, Böhland) (IT5° C., DAT42, % a.i. DMPSA 0.50, DCD 0.08): 18 | IE (inhibition of NO3 formation, Böhland) (IT5° C., DAT56, % a.i. DMPSA 0.25, DCD 1): 57 | IE (inhibition of NO3 formation, Böhland) (IT5° C., DAT56, % a.i. DMPSA 0.25, DCD 3): 74 | IE (inhibition of NO3 formation, Böhland) (IT5° C., DAT56, % a.i. DMPSA 0.30, DCD 0.05): 13 | IE (inhibition of NO3 formation, Böhland) (IT5° C., DAT56, % a.i. DMPSA 0.50, DCD 0.08): −1 | IE inhibition of NO3 formation (IT10° C., DAT10, % a.i.: DMPSA 0.5, DCD 1, DMPSA + DCD 0.5 + 1 (1:2)): 18 | IE inhibition of NO3 formation (IT10° C., DAT10, % a.i.: DMPSA 0.5, DCD 3, DMPSA + DCD 0.5 + 3 (1:6)): 59 | IE inhibition of NO3 formation (IT10° C., DAT20, % a.i.: DMPSA 0.5, DCD 1, DMPSA + DCD 0.5 + 1 (1:2)): 15 | IE inhibition of NO3 formation (IT10° C., DAT20, % a.i.: DMPSA 0.5, DCD 3, DMPSA + DCD 0.5 + 3 (1:6)): 24 | IE (inhibition of NO3 formation, Böhland) (IT10° C., DAT28, % a.i. DMPSA 0.25, DCD 1): 47 | IE (inhibition of NO3 formation, Böhland) (IT10° C., DAT28, % a.i. DMPSA 0.25, DCD 3): 64 | IE (inhibition of NO3 formation, Böhland) (IT10° C., DAT28, % a.i. DMPSA 0.30, DCD 0.05): 4 | IE (inhibition of NO3 formation, Böhland) (IT10° C., DAT28, % a.i. DMPSA 0.50, DCD 0.08): 2 | IE inhibition of NO3 formation (IT10° C., DAT28, % a.i.: DMPSA 0.50, DCD 0.0125, DMPSA + DCD 0.50 + 0.0125 (40:1)): 1 | IE inhibition of NO3 formation (IT10° C., DAT28, % a.i.: DMPSA 0.50, DCD 0.0143, DMPSA + DCD 0.50 + 0.0143 (35:1)): −3 | IE inhibition of NO3 formation (IT10° C., DAT28, % a.i.: DMPSA 0.50, DCD 0.0167, DMPSA + DCD 0.50 + 0.0167 (30:1)): −1 | IE inhibition of NO3 formation (IT10° C., DAT30, % a.i.: DMPSA 0.5, DCD 1, DMPSA + DCD 0.5 + 1 (1:2)): 47 | IE inhibition of NO3 formation (IT10° C., DAT30, % a.i.: DMPSA 0.5, DCD 3, DMPSA + DCD 0.5 + 3 (1:6)): 55 | IE (inhibition of NO3 formation, Böhland) (IT10° C., DAT42, % a.i. DMPSA 0.25, DCD 1): 51 | IE (inhibition of NO3 formation, Böhland) (IT10° C., DAT42, % a.i. DMPSA 0.25, DCD 3): 64 | IE (inhibition of NO3 formation, Böhland) (IT10° C., DAT42, % a.i. DMPSA 0.30, DCD 0.05): −1 | IE (inhibition of NO3 formation, Böhland) (IT10° C., DAT42, % a.i. DMPSA 0.50, DCD 0.08): −1 | IE (inhibition of NO3 formation, Böhland) (IT10° C., DAT56, % a.i. DMPSA 0.25, DCD 1): 19 | IE (inhibition of NO3 formation, Böhland) (IT10° C., DAT56, % a.i. DMPSA 0.25, DCD 3): 29 | IE (inhibition of NO3 formation, Böhland) (IT10° C., DAT56, % a.i. DMPSA 0.30, DCD 0.05): −3 | IE (inhibition of NO3 formation, Böhland) (IT10° C., DAT56, % a.i. DMPSA 0.50, DCD 0.08): 0 | IE inhibition of NO3 formation (IT15° C., DAT10, % a.i.: DMPSA 0.5, DCD 1, DMPSA + DCD 0.5 + 1 (1:2)): 34 | IE inhibition of NO3 formation (IT15° C., DAT10, % a.i.: DMPSA 0.5, DCD 3, DMPSA + DCD 0.5 + 3 (1:6)): 55 | IE inhibition of NO3 formation (IT15° C., DAT20, % a.i.: DMPSA 0.5, DCD 1, DMPSA + DCD 0.5 + 1 (1:2)): 47 | IE inhibition of NO3 formation (IT15° C., DAT20, % a.i.: DMPSA 0.5, DCD 3, DMPSA + DCD 0.5 + 3 (1:6)): 64 | IE (inhibition of NO3 formation, Böhland) (IT15° C., DAT28, % a.i. DMPSA 0.25, DCD 1): 27 | IE (inhibition of NO3 formation, Böhland) (IT15° C., DAT28, % a.i. DMPSA 0.25, DCD 3): 46 | IE inhibition of NO3 formation (IT15° C., DAT28, % a.i.: DMPSA 0.30, DCD 0.05, DMPSA + DCD 0.30 + 0.05 (6:1)): 5 | IE inhibition of NO3 formation (IT15° C., DAT28, % a.i.: DMPSA 0.50, DCD 0.0125, DMPSA + DCD 0.50 + 0.0125 (40:1)): 2 | IE inhibition of NO3 formation (IT15° C., DAT28, % a.i.: DMPSA 0.50, DCD 0.0143, DMPSA + DCD 0.50 + 0.0143 (35:1)): 1 | IE inhibition of NO3 formation (IT15° C., DAT28, % a.i.: DMPSA 0.50, DCD 0.0167, DMPSA + DCD 0.50 + 0.0167 (30:1)): 1 | IE inhibition of NO3 formation (IT15° C., DAT28, % a.i.: DMPSA 0.50, DCD 0.08, DMPSA + DCD 0.50 + 0.08 (6.25:1)): 2 | IE inhibition of NO3 formation (IT15° C., DAT30, % a.i.: DMPSA 0.5, DCD 1, DMPSA + DCD 0.5 + 1 (1:2)): 42 | IE inhibition of NO3 formation (IT15° C., DAT30, % a.i.: DMPSA 0.5, DCD 3, DMPSA + DCD 0.5 + 3 (1:6)): 59 | IE (inhibition of NO3 formation, Böhland) (IT15° C., DAT42, % a.i. DMPSA 0.25, DCD 1): 12 | IE (inhibition of NO3 formation, Böhland) (IT15° C., DAT42, % a.i. DMPSA 0.25, DCD 3): 21 | IE inhibition of NO3 formation (IT15° C., DAT42, % a.i.: DMPSA 0.30, DCD 0.05, DMPSA + DCD 0.30 + 0.05 (6:1)): 2 | IE inhibition of NO3 formation (IT15° C., DAT42, % a.i.: DMPSA 0.50, DCD 0.08, DMPSA + DCD 0.50 + 0.08 (6.25:1)): 3 | IE (inhibition of NO3 formation, Böhland) (IT15° C., DAT56, % a.i. DMPSA 0.25, DCD 1): 1 | IE (inhibition of NO3 formation, Böhland) (IT15° C., DAT56, % a.i. DMPSA 0.25, DCD 3): 3 | IE inhibition of NO3 formation (IT15° C., DAT56, % a.i.: DMPSA 0.30, DCD 0.05, DMPSA + DCD 0.30 + 0.05 (6:1)): 16 | IE inhibition of NO3 formation (IT15° C., DAT56, % a.i.: DMPSA 0.50, DCD 0.08, DMPSA + DCD 0.50 + 0.08 (6.25:1)): 13
